Laboratory results published in patent publication US4048325A, “Low toxicity method of inhibiting sickling of sickle erythrocytes” (The United States of America as represented by the United …, priority 1976, dated 1977).
Read-outs that look alike come from different tables or passages of the source.

Tests used:
sickle erythrocytes [1] = test: in vitro sickling of sickle erythrocytes after amidination; assay type: cell-based, human
Protocol: (§1) Cells were washed with Krebs-Henseleit Buffer (pH 7.4) to remove non-erythrocyte blood elements and resuspended in the same medium to a final hematocrit of 20-40%. Erythrocyte suspensions (4% hematocrit) were incubated in KHB (pH 8.5) containing freshly dissolved EA (1-10 mM). After incubation at room temperature (20°-22°) for 30 min, the cells were washed twice with KH buffer (pH 7.4) and resuspended either in the original plasma (40% hematocrit) for analysis of sickling or in other solutions as described below. To amidinate under anoxia the cells were equilibrated with nitrogen in a tonometer until no oxygen could be detected polarographically. Imidates were added in the dry state to anaerobic cell suspensions. Following treatment, the suspensions were diluted 1:1 with 0.1M Tris-acetate--0.15M NaCl buffer (pH 6.0) to quench amidination, and the cells washed as described above.
The cells were deoxygenated with freshly prepared sodium metabisulfite, fixed with 10% formaldehyde, and examined microscopically. Hypoxic conditions: Cell suspensions were deoxygenated by equilibration with 3% oxygen. Five hundred cells were conted to ascertain the extent of sickling.

sickle erythrocytes [2] = conditions: Lubin et al 1975; cited from earlier work
erythrocytes = test: hemolysis following incubation under the conditions of amidination; assay type: cell-based, human; conditions: after incubation under the conditions of amidination
Protocol: as §1

[3] = tested on: inner membrane ATPase (adenosine triphosphatase); test: inner membrane ATPase activity; assay type: biochemical; conditions: at comparable levels of amidination (FIG. 2)
Description: FIG. 2 is a graph illustating the effect of dimethylsuberimidate (DMS) and ethylacetimidate (EA) on inner membrane ATPase (adenosine triphosphatase) activity. Open symbols represent DMS-treated membranes, and closed symbols represent EA-treated membranes.
(§2) When compared to bifunctional imidates, monoimidates have major advantages as therapeutic agents for the treatment of sickle cell disease. One important difference between the two classes of reagents is their relative effect on enzyme activity. […] The results as shown, respectively in Table II and FIG. 2. To facilitate a comparison of imidate action, effects were related to extent of amidination as measured by percent amino group decrease rather than the absolute reagent concentration.
In the experiment designated by the closed circles in FIG. 2, membranes were treated with high concentrations of EA to determine the extent of amidination required for complete inhibition of activity. The concentrations of EA required for complete inhibition of activity are considerably in excess of the amount required to inhibit sickling.

ascorbate-TMPD oxidase = test: electron transport: ascorbate-TMPD oxidase of mitochondrial inner membranes; assay type: biochemical; conditions: for effect of treatment on ascorbate-TMPD oxidase, in words: at comparable levels of amidination
Description: as §2

rats = test: animal survival after exchange of treated blood; assay type: in vivo, rat; conditions: 30mM in whole blood
Protocol: In experiments conducted to determine the effect of monoimidates on animal survival, rats were treated with ethylacetimidate at levels of 30mM in whole blood under conditions similar to the in vitro studies described above. This level fo treatment is at least 30 times higher than required for prevention of sickling in vitro. At least three-fourths of the blood was treated and exchanged.

succinate oxidase = test: electron transport: succinate oxidase of mitochondrial inner membranes; assay type: biochemical; conditions: for effect of treatment on succinate oxidase, in words: at comparable levels of amidination
Description: as §2

[4] = target: T1, hemoglobin of sickle cells (Homo sapiens, UniProt P68871+P69905, E7V); test: hemoglobin-oxygen affinity (P50), sickle cells; assay type: cell-based; conditions: 1 mM
T1 construct: endogenous in cells; host or cells: sickle erythrocytes (Children's Hospital, Oakland, CA)
Protocol: as §1
(§3) The oxygen affinity of whole blood (P50) was determined in a tonometer as in B. H. Lubin et al, cited above.
(§4) Since oxyhemoglobin and deoxyhemoglobin differ in quaternary structure and since the structural differences may affect the manner in which imidates react with hemoglobin, amidination was carried out in the presence and absence of oxygen and the effect on oxygen affinity was then examined.

NADH oxidase = test: electron transport: NADH oxidase of mitochondrial inner membranes; assay type: biochemical; conditions: for effect of treatment on NADH oxidase, in words: at comparable levels of amidination
Description: as §2

in vivo = conditions: ip, intraperitoneal
Description: Each compound was made up in KH buffer (280 Mosm) buffered to pH 7.4 with 5N NaOH. The final volume for each injection was 1 cc in rats in 0.5 cc in mice.

[5] = target: T2, hemoglobin of normal cells (Homo sapiens, UniProt P68871+P69905); test: hemoglobin-oxygen affinity (P50), normal cells; assay type: cell-based; conditions: 1 mM
T2 construct: endogenous in cells; host or cells: normal erythrocytes from healthy volunteers
Protocol: as §1, §3, §4

sickle erythrocytes [6] = test: net potassium leak which accompanies sickling; assay type: cell-based, human

CCCC(=N)OC [methylbutyrimidate, methyl butyrimidate]
prevention of in vitro sickling compared with EA (sickle erythrocytes [1]): as effective as EA

COC(=N)CCCCC(=N)OC [DMA, dimethyl adipimidate]
inhibition of sickling in vitro (literature report) (sickle erythrocytes [2]): inhibit sickling in vitro

CCOC(C)=N [EA, ethyl acetimidate]
hemolysis (erythrocytes): Negligible hemolysis | effect of treatment on ATPase activity, in words [3]: significantly less inhibitory | Ascorbate-TMPD oxidase activity (% control) (ascorbate-TMPD oxidase; 4 mM): 73 % control | Ascorbate-TMPD oxidase activity (% control) (ascorbate-TMPD oxidase; 20 mM): 64 % control | effect of treatment on ascorbate-TMPD oxidase, in words (ascorbate-TMPD oxidase): significantly less sensitive to EA than DMS | deleterious effects after exchange of treated blood (rats; at least three-fourths of the blood treated and exchanged, three experiments): no deleterious effects | hematocrits after treatment (rats; due to the loss of blood during the transfusion): slightly reduced | Succinate oxidase activity (% control) (succinate oxidase; 4 mM): 61 % control | Succinate oxidase activity (% control) (succinate oxidase; 20 mM): 45 % control | effect of treatment on succinate oxidase, in words (succinate oxidase): significantly less sensitive to EA than DMS | inhibition of sickling (sickle erythrocytes [1]; 2-5 mM imidate, in vitro): nearly complete inhibition | inhibition at 1000 µM (sickle erythrocytes [1]; Homo sapiens, Erythrocyte, 1 mM imidate, in vitro, read-out: prevention of sickling): 70 to 80% | prevention of sickling on renewed deoxygenation of cells amidinated under anoxia (sickle erythrocytes [1]; compared with amidination in the presence of oxygen): sickling was prevented to the same degree | effectiveness under hypoxic and anoxic conditions (sickle erythrocytes [1]; deoxygenation with 3% oxygen or sodium metabisulfite): effective under both hypoxic and anoxic conditions | inhibition of sickling (sickle erythrocytes [1]; low imidate concentrations (1-2mM)): approximately 80% | P50 ([4]; amidinated deoxygenated): 35.0 mm Hg | P50 ([4]; amidinated oxygenated): 27.0 mm Hg | NADH oxidase activity (% control) (NADH oxidase; 4 mM): 78 % control | NADH oxidase activity (% control) (NADH oxidase; 20 mM): 56 % control | effect of treatment on NADH oxidase, in words (NADH oxidase): significantly less sensitive to EA than DMS | LD50 (in vivo; mouse, mice, read-out: LD50 (Lethal dose for 50% of the animals)): 950 mg/kg | LD50 (in vivo; rat, rats): 900 mg/kg | P50 ([5]; amidinated deoxygenated): 28.0 mm Hg | P50 ([5]; amidinated oxygenated): 25.0 mm Hg

COC(C)=N [methylacetimidate, methyl acetimidate]
net potassium leak which accompanies sickling (sickle erythrocytes [6]): elimination of the net potassium leak | prevention of in vitro sickling compared with EA (sickle erythrocytes [1]): as effective as EA

COC(=N)CCCCCCC(=N)OC [DMS, dimethylsuberimidate, reference compound]
effect of treatment on ATPase activity, in words [3]: markedly inhibited | Ascorbate-TMPD oxidase activity (% control) (ascorbate-TMPD oxidase; 2 mM): 61 % control | Ascorbate-TMPD oxidase activity (% control) (ascorbate-TMPD oxidase; 10 mM): 28 % control | effect of treatment on ascorbate-TMPD oxidase, in words (ascorbate-TMPD oxidase): markedly inhibited | Succinate oxidase activity (% control) (succinate oxidase; 2 mM): 62 % control | Succinate oxidase activity (% control) (succinate oxidase; 10 mM): 22 % control | effect of treatment on succinate oxidase, in words (succinate oxidase): markedly inhibited | NADH oxidase activity (% control) (NADH oxidase; 2 mM): 58 % control | NADH oxidase activity (% control) (NADH oxidase; 10 mM): 10 % control | effect of treatment on NADH oxidase, in words (NADH oxidase): markedly inhibited
